Experimental data reported in US8012481B2, “Composition and method for inducing or restoring locomotor functions in an animal” (Universite Laval, priority 2004, dated 2011).

Legend:
Type in all cases: in vivo, mouse
[1] = tested on: paraplegic mice; assay: Hindlimb movement generation in paraplegic mice, air-stepping and/or treadmill not separated; BBB and AOB scales; settings: for induction of LM / induction of NLM: increasing doses, air-stepping and treadmill conditions, FIG. 13; for effect of 5-HT1A antagonist pretreatment on 8-OH-DPAT-induced LM: antagonist 2 mg/kg
Protocol: Animals and Treatment. We tested one hundred and ninety five (n=195) male and female adult CD1 and C57BL/6 mice weighing 30-40 grams prior to the study (Charles River Laboratory, St-Constant, Canada). […] Animals were spinalized 7 days prior to testing (exceptionally tested sometimes at 15 days post-spinalization, e.g., FIG. 17). A complete transection of the spinal cord was performed intervertebrally between the 9th and 10th vertebrae in isoflurane (2.5%) anesthetized animals. Complete spinalization was confirmed by 1) full paralysis of the hindlimbs, 2) post-mortem examination of the spinal cord microscopically and, in some cases, 3) staining transverse or sagittal spinal cord sections with luxol fast blue/cresyl violet for myelinated axons and nissl substance respectively. All mice received pre-operative care and post-operative care including lactate-Ringer's solution (2 ml/day, s.c.), analgesic (buprenorphine 0.2 mg/kg/day, s.c.) and antibiotic (baytril 5 mg/kg/day, s.c.). Bladders were emptied manually and animals were left in their cage without other interventions with food and water ad libitum until testing. Mice received a single injection (i.p.) of either 8-OHDPAT (5-HT1A/7); 5-CT (5-HT1A/7 agonist); buspirone (5-HT1A agonist); TFMPP (5-HT1B/2C agonist); quipazine (5-HT2B/2C); m-CPP (5-HT2B/2C agonist); SR-57227A (5-HT3) one week post-spinalization. […] The contribution of spinal 5-HT4/5/6 receptor activation to hindlimb movement generation in spinalized animals were not tested either because selective ligands are not available or because no significant expression levels have been found for these receptor subtypes in the mammalian spinal cord (see Schmidt and Jordan, Brain Res Bull 2000).
Hindlimb movement recording. Hindlimb movements were filmed (digital video camera 3 Com Home-connect, 30 frames/sec) immediately prior to injection and at fixed delays after injection in animals either suspended (air-stepping condition) or placed on a treadmill running at a speed of 8-10 cm/sec (treadmill condition). A harness was put around the torso and the waist either to completely suspend animals (air-stepping) or to maintain them in front of the camera on the treadmill (not weight support was provided). Animals were not stimulated otherwise. Locomotor-like movements were defined as rhythmic flexions and extensions occurring in both hindlimbs alternatively. Body weight support and plantar foot placement were facultative and therefore not required to be counted as locomotor-like (LM). In turn, non-locomotor movements (NLM) were defined as non-bilaterally alternating hindlimb movements most often including spasms, kicks, uncoordinated or unilateral movements, etc. In some cases, qualitative assessment methods were used to evaluate the level of induced hindlimb movements. The BBB locomotor scale (Basso, Bresnahan and Beattie, Exp Neurol 1996) and the AOB motor scale (Antri, Orsal and Barthe, Eur J Neurosci 2002) were also occasionally used.

[2] = tested on: paraplegic mice (lumbar spinal cord circuitry for hindlimb locomotion); assay: Hindlimb movement generation (LM/NLM) on a motor-driven treadmill in complete spinal cord transected mice; settings: for induction of LM: some NLM were found; for mice in which a mixture of LM and NLM was induced: 7 animals/group
[3] = tested on: paraplegic mice; assay: Hindlimb movement generation in the air-stepping condition (suspended) in spinal cord transected mice
Source text: Animals and Treatment. Twenty-nine (n=29) male and female adult CD1 mice weighing 30-40 grams prior to the study (Charles River Laboratory, St-Constant, Canada). […] Animals were spinalized 7 days prior to testing. […] Bladders were emptied manually and animals were left in their cage without other interventions with food and water ad libitum until testing. […] A harness was put around the torso and the waist either to completely suspend animals (air-stepping) or to maintain them in front of the camera on the treadmill (not weight support was provided). Animals were not stimulated otherwise. Animals and Treatment. […] Bladders were emptied manually and animals were left in their cage without other interventions with food and water ad libitum until testing. Mice received a single injection (i.p.) of either 8-OHDPAT (5-HT1A/7); 5-CT (5-HT1A/7 agonist); buspirone (5-HT1A agonist); TFMPP (5-HT1B/2C agonist); quipazine (5-HT2B/2C); m-CPP (5-HT2B/2C agonist); SR-57227A (5-HT3) one week post-spinalization. […] Hindlimb movement recording. […] A harness was put around the torso and the waist either to completely suspend animals (air-stepping) or to maintain them in front of the camera on the treadmill (not weight support was provided). Animals were not stimulated otherwise. Locomotor-like movements were defined as rhythmic flexions and extensions occurring in both hindlimbs alternatively. Body weight support and plantar foot placement were facultative and therefore not required to be counted as locomotor-like (LM). In turn, non-locomotor movements (NLM) were defined as non-bilaterally alternating hindlimb movements most often including spasms, kicks, uncoordinated or unilateral movements, etc. In some cases, qualitative assessment methods were used to evaluate the level of induced hindlimb movements. The BBB locomotor scale (Basso, Bresnahan and Beattie, Exp Neurol 1996) and the AOB motor […], Orsal and Barthe, Eur J Neurosci 2002) were also occasionally used.

[4] = tested on: paraplegic mice (lumbar spinal cord circuitry for hindlimb locomotion); assay: Hindlimb movement generation (LM/NLM) on a motor-driven treadmill in complete spinal cord transected mice
Protocol: (§1) Animals and Treatment Thirty-two (n=32) male or female adult CD1 mice weighing 30-40 grams were tested prior to the study (Charles River Laboratory, St-Constant, Canada). The experiment was conducted in a Canadian Council on Animal Care approved facility in accordance with the CCAC Guide for Care and Use of Experimental Animals. Animals were spinalized 7-9 days prior to testing. A complete transection of the spinal cord was performed intervertebrally between the 9th and 10th vertebrae in isoflurane (2.5%) anesthetized animals. Complete spinalization was confirmed by 1) full paralysis of the hindlimbs, 2) post-mortem examination of the spinal cord microscopically and, in some cases, 3) staining transverse or sagittal spinal cord sections with luxol fast blue/cresyl violet for myelinated axons and nissl substance respectively. All mice received pre-operative care and post-operative care including lactate-Ringer's solution (2 ml/day, s.c.), analgesic (buprenorphine 0.2 mg/kg/day, s.c.) and antibiotic (baytril 5 mg/kg/day, s.c.). Bladders were emptied manually and animals were left in their cage without other interventions with food and water ad libitum until testing.
Hindlimb movement recording. Hindlimb movements were filmed (digital video camera 3 Com Home-connect, 30 frames/sec), 1) immediately prior to injection and, 2) at fixed delays after injection in animals placed on a treadmill running at a speed of 8-10 cm/sec (treadmill condition). A harness was put around the torso and the waist to maintain them in front of the camera on the treadmill (not weight support was provided). Animals were not stimulated otherwise. Hindlimb movements were assessed either as locomotor-like movements (LM) or non-locomotor movements (NLM) Locomotor-like movements were defined as rhythmic flexions and extensions occurring in both hindlimbs alternatively. Body weight support and plantar foot placement were facultative and therefore not required to be counted as locomotor-like (LM). In turn, non-locomotor movements (NLM) were defined as non-bilaterally alternating hindlimb movements most often including spasms, kicks, uncoordinated or unilateral movements, etc. Levels of weight supported movements and of plantar foot placements were assessed as either none, occasional, or frequent.
as §1, with “and Treatment. Twenty-nine (n=29)” for “and Treatment Thirty-two (n=32)”, “male and” for “male or”, “grams” for “grams were tested”, “spinalized 7” for “spinalized 7-9”, “(baytril” for “(baytril 5”
Hindlimb movement recording, Hindlimb movements were filmed (digital video camera 3 Com Home-connect, 30 frames/sec) immediately prior to injection and at fixed delays after injection in animals suspended (air-stepping condition) or placed on a treadmill running at a speed of 8-10 cm/sec (treadmill condition). A harness was put around the torso and the waist either to completely suspend animals (air-stepping) or to maintain them in front of the camera on the treadmill (not weight support was provided).

[5] = single injection 0.5-2.5 mg/kg, i.p., CD1 mice 6-7 days post-spinalization, treadmill
[6] = L-DOPA 40-100 mg/kg, treadmill, n=29
[7] = i.p. prior to 8-OH-DPAT, both strains

For `FC(F)(F)c1cccc(N2CCNCC2)c1` [TFMPP], the “induction of LM” value ([1]; i.p.) was “not to induce LM” and the “induction of NLM” value ([1]; i.p.) was “induced only NLM”.

`Cc1cccc(C(=O)NCN2CCN(c3ccccc3C#N)CC2)c1` [PD168077] was tested, and the “induction of LM” value [2, 5] was “did not induce LM”.

With `CC1CCN(CC[C@H]2CCCN2S(=O)(=O)c2cccc(O)c2)CC1` [SB269970] the “effect of 5-HT7 antagonist pretreatment on 8-OH-DPAT-induced movement frequencies, amplitudes and angular excursions” value ([1]; SB269970 2-15 mg/kg, i.p. prior to 8-OH-DPAT, both strains) was “importantly reduced”.

With `N[C@@H](Cc1ccc(O)c(O)c1)C(=O)O` [L-DOPA, L-(−)-2-amino-3-(3,4-dihydroxyphenyl)propionic acid] the “hindlimb movement generation in air-stepping” value (“hindlimb movement generation” below) ([3]; 40 mg/kg L-DOPA, 1-week paraplegic mouse, 20 min post-injection (no effect either 30 or 45 min later)) was “No hindlimb movements”, the “hindlimb movement generation” value ([3]; 80 mg/kg L-DOPA, 28 min after injection) was “No movements” and the “hindlimb movement generation” value ([3]; 30-100 mg/kg L-DOPA i.p. with benserazide (1:4), CD1 mice 7 days post-spinalization) was “did not induce hindlimb movements”. The “weight bearing locomotor capabilities” value ([4]; L-DOPA 40-100 mg/kg, treadmill, all cases) was “no weight bearing locomotor capabilities”, the “LM per min (average)” value [4, 6] was 6.1±1.3 per min and the “NLM per min (average)” value [4, 6] was 11.2±1.8 per min. The “uneffective doses on treadmill” value ([4]; L-DOPA i.p. with benserazide (1:4), CD1 mice 7 days post-spinalization, treadmill 8-10 cm/sec) was less than 40 mg/kg and the “time following injection at which hindlimb movements began” value ([4]; one mouse (FIG. 6): 40 mg/kg L-DOPA, treadmill) was 20 min.

With `NC[C@@H]1O[C@H](c2ccccc2)Cc2c1ccc(O)c2O` [A-68930] the “mice in which a mixture of LM and NLM was induced” value (“mice in which a mixture” below) [2, 5] was 28%.

For `CCCN(CCC)C1CCc2cccc(O)c2C1` (stereo not drawn) [8-OH-DPAT, 8-hydroxy-2-(di-n-propylamino)tetralin], the “induction of hindlimb movements” value ([1]; 8-OH-DPAT 1 mg/kg, i.p., CD1 and C57BI/6 mice seven days after transection) was “induced hindlimb alternated movements in most mice”, the “weight supported steps or plantar foot placements” value ([1]; 8-OH-DPAT 1 mg/kg, i.p., seven days after transection) was “not found” and the “doses at which all-or-none-like effects (LM and NLM) start” value ([2]; 8-OH-DPAT i.p., spinal mice on a treadmill (FIG. 18), n=28) was no less than 1 mg/kg.

In the case of `Oc1cc2c(c(Cl)c1O)CCNCC2c1ccccc1` (stereo not drawn) [SKF-81297], the “ACOS (averaged combined score = NLM+[LM×2])” value [2, 5] is reported as greater than 8 and the “mice in which a mixture” value [2, 5] is reported as 71%.

With `COc1ccccc1N1CCN(CC(C(=O)NC(C)(C)C)c2ccccc2)CC1` (stereo not drawn) [WAY100,135] the “effect of 5-HT1A antagonist pretreatment on 8-OH-DPAT-induced LM” value [1, 7] was “significantly reduced”.

`Cl.NC1CCN(c2cccc(Cl)n2)CC1` [SR-57227A] was tested, and the “type of hindlimb movements induced” value ([1]; SR-57227A i.p., air-stepping, open-field or treadmill) was “can induce only NLM”, the “scores with the BBB and Antri motor scales” value ([1]; SR-57227A, FIG. 16) was “very low scores” and the “score on Basso, Beattie and Bresnahan (1996) locomotor scale” value ([1]; SR-57227A, FIG. 16A) was “Non-significant scores”. For the same compound, the “locomotor-like movements per min on a treadmill” value ([4]; SR-57227A, treadmill, in some animals) was “approx. 2.5 per min”.

With `COc1ccccc1N1CCN(CCN(C(=O)C2CCCCC2)c2ccccn2)CC1` [WAY100,635] the “effect of 5-HT1A antagonist pretreatment on 8-OH-DPAT-induced LM” value [1, 7] was “significantly reduced”.

With `Clc1cccc(N2CCNCC2)c1` [m-CPP] the “induction of LM” value ([1]; i.p.) was “not to induce LM” and the “induction of NLM” value ([1]; i.p.) was “dose-dependent non-locomotor movements were found”.

With `c1ccc2nc(N3CCNCC3)ccc2c1` [quipazine] the “doses inducing some rhythmic LM in air-stepping” value ([3]; quipazine i.p., air-stepping condition, FIG. 14) was “above 0.8 mg/kg”, the ineffective doses ([3]; quipazine i.p., air-stepping, FIG. 14H) was “below 0.8 mg/kg” and the “times less LM than 8-OH-DPAT tested in similar conditions” value ([1]; quipazine, FIG. 9 vs. FIG. 15) was 2-3 times. The “weight-supported stepping and plantar foot placement” value ([1]; quipazine, air-stepping or treadmill 8-10 cm/sec) was “No weight-supported stepping and plantar foot placement were found” and the “number of movements of each type (LM, NLM)” value ([1]; quipazine, treadmill as well as air-stepping, FIG. 15) was 8-15.

`CCCN(CCC)C1CCc2ccc(O)cc2C1` (stereo not drawn) [7-OH-DPAT] was tested, and the “induction of LM” value [2, 5] was “did not induce LM”.

`CN1CCc2cccc3c2[C@H]1Cc1ccc(O)c(O)c1-3` [apomorphine, (R)-5,6,6a,7-tetrahydro-6-methyl-4H-dibenzo-[de,g]quinoline-10,11-diol] was tested, and the “mice in which a mixture” value [2, 5] was 11%.
